Legend:
Experiment in all cases: Biomarker study proliferation (CellTiter-Glo)
Format in all cases: cell-based
[1] = test system: HCC44
Outline: (§1)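 Ten concentrations, threefold apart, starting from a 10 mM DMSO working stock, are applied to cells seeded at 5000/well. Exposure lasts 7 days at 37 °C, 5% CO2, and viability is read by luminescence.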

[2] = test system: SKMES1
Outline: as §1

[3] = test system: A549
Outline: as §1

[4] = test system: SH10TC
Outline: as §1

[5] = test system: THP1
Outline: as §1

[6] = test system: SNU1196
Outline: as §1

[7] = test system: C33A
Outline: as §1

[8] = test system: HEC108
Outline: as §1

[9] = test system: SNU478
Outline: as §1

[10] = test system: NCIH727
Outline: as §1

[11] = test system: HT1197
Outline: as §1

[12] = test system: NCIH1092
Outline: as §1

[13] = test system: JURKAT
Outline: as §1

[14] = test system: MDAMB468
Outline: as §1

[15] = test system: DMS53
Outline: as §1

[16] = test system: IGROV1
Outline: as §1

[17] = test system: NCIH209
Outline: as §1

[18] = test system: NCIH460
Outline: as §1

[19] = test system: SNU739
Outline: as §1

[20] = 168 h, read-out: Anti-proliferation effect IC50

With `Cc1cc(NC2CCN(C(=O)O[C@H]3CCN(C(=O)/C=C/CN(C)C)C3)CC2)n2ncc(C(C)C)c2n1` [Example 1, [(3S)-1-[(E)-4-(dimethylamino)but-2-enoyl]pyrrolidin-3-yl] 4-[(3-isopropyl-5-methyl-pyrazolo[1,5-a]pyrimidin-7-yl)amino]piperidine-1-carboxylate] the “Anti-proliferation effect % Inh.” value ([1]; HCC44, LUNG, 7 days) was 48%, the “Anti-proliferation effect Outcome” value ([1]; HCC44, LUNG, 7 days) was “Cytostatic (cytostatic (IC50<1 μM and % inhibition <70%))” and the IC50 ([1]; Homo sapiens, HCC44, 168 h, read-out: Anti-proliferation effect IC50) was 131 nM. For the same molecule, the IC50 ([2]; Homo sapiens, SK-MES-1, 168 h, read-out: Anti-proliferation effect IC50) was 28 nM, the “Anti-proliferation effect % Inh.” value ([2]; SKMES1, LUNG, 7 days) was 80% and the “Anti-proliferation effect Outcome” value ([2]; SKMES1, LUNG, 7 days) was “Cytotoxic (cytotoxic (IC50<1 μM and % inhibition ≥70%))”. The “Anti-proliferation effect % Inh.” value ([3]; A549, LUNG, 7 days) was 64%, the “Anti-proliferation effect Outcome” value ([3]; A549, LUNG, 7 days) was “Cytostatic (cytostatic (IC50<1 μM and % inhibition <70%))” and the IC50 ([3]; Homo sapiens, A549, 168 h, read-out: Anti-proliferation effect IC50) was 139 nM. For the same molecule, the “Anti-proliferation effect % Inh.” value ([4]; SH10TC, STOMACH, 7 days) was 58%, the “Anti-proliferation effect Outcome” value ([4]; SH10TC, STOMACH, 7 days) was “Cytostatic (cytostatic (IC50<1 μM and % inhibition <70%))” and the IC50 ([4]; SH-10-TC, 168 h, read-out: Anti-proliferation effect IC50) was 147 nM. For the same molecule, the IC50 ([5]; Homo sapiens, THP-1, 168 h, read-out: Anti-proliferation effect IC50) was 42 nM, the “Anti-proliferation effect % Inh.” value ([5]; THP1, BLOOD, 7 days) was 81% and the “Anti-proliferation effect Outcome” value ([5]; THP1, BLOOD, 7 days) was “Cytotoxic (cytotoxic (IC50<1 μM and % inhibition ≥70%))”. For the same molecule, the IC50 [6, 20] was 43 nM, the “Anti-proliferation effect % Inh.” value ([6]; SNU1196, BILIARY, 7 days) was 68% and the “Anti-proliferation effect Outcome” value ([6]; SNU1196, BILIARY, 7 days) was “Cytostatic (cytostatic (IC50<1 μM and % inhibition <70%))”. For the same molecule, the “Anti-proliferation effect % Inh.” value ([7]; C33A, CERVIX, 7 days) was 79%, the “Anti-proliferation effect Outcome” value ([7]; C33A, ENDOMETRIUM, 7 days) was “Cytotoxic (cytotoxic (IC50<1 μM and % inhibition ≥70%))” and the IC50 ([7]; Homo sapiens, C-33-A, 168 h, read-out: Anti-proliferation effect IC50) was 14 nM. The IC50 [8, 20] was 31 nM, the “Anti-proliferation effect % Inh.” value ([8]; HEC108, ENDOMETRIUM, 7 days) was 90% and the “Anti-proliferation effect Outcome” value ([8]; HEC108, ENDOMETRIUM, 7 days) was “Cytotoxic (cytotoxic (IC50<1 μM and % inhibition ≥70%))”. The IC50 [9, 20] was 32 nM, the “Anti-proliferation effect % Inh.” value ([9]; SNU478, BILIARY, 7 days) was 92% and the “Anti-proliferation effect Outcome” value ([9]; SNU478, BILIARY, 7 days) was “Cytotoxic (cytotoxic (IC50<1 μM and % inhibition ≥70%))”. The IC50 ([10]; Homo sapiens, NCI-H727, 168 h, read-out: Anti-proliferation effect IC50) was 117 nM, the “Anti-proliferation effect % Inh.” value ([10]; NCIH727, LUNG, 7 days) was 56% and the “Anti-proliferation effect Outcome” value ([10]; NCIH727, LUNG, 7 days) was “Cytostatic (cytostatic (IC50<1 μM and % inhibition <70%))”. The “Anti-proliferation effect % Inh.” value ([11]; HT1197, URINARY, 7 days) was 55%, the “Anti-proliferation effect Outcome” value ([11]; HT1197, URINARY, 7 days) was “Cytostatic (cytostatic (IC50<1 μM and % inhibition <70%))” and the IC50 ([11]; Homo sapiens, HT1197, 168 h, read-out: Anti-proliferation effect IC50) was 281 nM. For the same molecule, the IC50 ([12]; Homo sapiens, NCI-H1092, 168 h, read-out: Anti-proliferation effect IC50) was 683 nM, the “Anti-proliferation effect % Inh.” value ([12]; NCIH1092, LUNG, 7 days) was 42% and the “Anti-proliferation effect Outcome” value ([12]; NCIH1092, LUNG, 7 days) was “Cytostatic (cytostatic (IC50<1 μM and % inhibition <70%))”. For the same molecule, the IC50 ([13]; Homo sapiens, Jurkat, 168 h, read-out: Anti-proliferation effect IC50) was 61 nM, the “Anti-proliferation effect % Inh.” value ([13]; JURKAT, BLOOD, 7 days) was 98% and the “Anti-proliferation effect Outcome” value ([13]; JURKAT, BLOOD, 7 days) was “Cytotoxic (cytotoxic (IC50<1 μM and % inhibition ≥70%))”. The IC50 ([14]; Homo sapiens, MDA-MB-468, 168 h, read-out: Anti-proliferation effect IC50) was 8 nM, the “Anti-proliferation effect % Inh.” value ([14]; MDAMB468, BREAST, 7 days) was 100% and the “Anti-proliferation effect Outcome” value ([14]; MDAMB468, BREAST, 7 days) was “Cytotoxic (cytotoxic (IC50<1 μM and % inhibition ≥70%))”. For the same molecule, the “Anti-proliferation effect % Inh.” value ([15]; DMS53, LUNG, 7 days) was 66%, the “Anti-proliferation effect Outcome” value ([15]; DMS53, LUNG, 7 days) was “Cytostatic (cytostatic (IC50<1 μM and % inhibition <70%))” and the IC50 ([15]; Homo sapiens, DMS-53, 168 h, read-out: Anti-proliferation effect IC50) was 118 nM. The IC50 ([16]; Homo sapiens, IGROV-1, 168 h, read-out: Anti-proliferation effect IC50) was 72 nM, the “Anti-proliferation effect % Inh.” value ([16]; IGROV1, OVARY, 7 days) was 70% and the “Anti-proliferation effect Outcome” value ([16]; IGROV1, OVARY, 7 days) was “Cytotoxic (cytotoxic (IC50<1 μM and % inhibition ≥70%))”. The IC50 ([17]; Homo sapiens, NCI-H209, 168 h, read-out: Anti-proliferation effect IC50) was 40 nM, the “Anti-proliferation effect % Inh.” value ([17]; NCIH209, LUNG, 7 days) was 83% and the “Anti-proliferation effect Outcome” value ([17]; NCIH209, LUNG, 7 days) was “Cytotoxic (cytotoxic (IC50<1 μM and % inhibition ≥70%))”. For the same molecule, the IC50 ([18]; Homo sapiens, NCI-H460, 168 h, read-out: Anti-proliferation effect IC50) was 47 nM, the “Anti-proliferation effect % Inh.” value ([18]; NCIH460, LUNG, 7 days) was 97% and the “Anti-proliferation effect Outcome” value ([18]; NCIH460, LUNG, 7 days) was “Cytotoxic (cytotoxic (IC50<1 μM and % inhibition ≥70%))”. For the same molecule, the “Anti-proliferation effect % Inh.” value ([19]; SNU739, LIVER, 7 days) was 47%, the “Anti-proliferation effect Outcome” value ([19]; SNU739, LIVER, 7 days) was “Insensitive (insensitive (IC50≥1 μM))” and the IC50 ([19]; SNU-739, 168 h, read-out: Anti-proliferation effect IC50) was greater than 10000 nM.

Source: patent publication US20210032257A1, “(E)-1-(4-(DIMETHYLAMINO)BUT-2-ENOYL)PYRROLIDIN-3-YL 4-((3-ISOPROPYL-5-METHYLPYRAZOLO[1,5-A]PYRIMIDIN-7-YL)AMINO)PIPERIDINE-1-CARBOXYLATE FOR INHIBITING CDK7” (Eli Lilly and Company, priority 2017, published 2021)
